Test results published in patent US10570121B2, “Substituted dihydroisoquinolinone compounds” (priority 2014, dated 2020).
Where two headings read alike, the source gives them in different places.

How the values were obtained:
WT EZH2 = WT EZH2 (Homo sapiens (Human), UniProt Q15910); assay: WT EZH2 nucleosome assay (10X SAM, high SAM conditions); type: biochemical; conditions: 15 uM SAM, Ki app from competitive inhibition fit
Protocol: (§1) The genes for EZH2, EED, SUZ12, and RBBP4 proteins were cloned into pBacPAK9 vectors (Clontech). RBBP4 was FLAG tagged on the N-terminal end. The baculovirus expressions of these proteins were used to co-infect SF9 insect cells. Insect cell pellets were lysed in a buffer containing 25 mM Tris pH8.0, 300 mM NaCl, 0.5 mM TCEP, complete EDTA-free protease inhibitor (Roche), 0.1% NP-40. The supernatant from the lysate was incubated with FLAG® M2 antibody resin (Sigma). The resin was washed on the chromatography column and eluted with 0.2 mg/ml FLAG peptide. The elute was incubated with omnicleave nucleases (Epicentre Technologies) at 4° C. overnight, then concentrated and loaded onto a Superdex 200 (GE Healthcare) column. The Superdex 200 column was eluted with 25 mM Tris pH8.0, 150 mM NaCl, 0.5 mM TCEP. Fractions containing the PRC2 complex were pooled.
(§2) A. Compound preparation • 1.
(§3) B. Reagent preparation • 1. […] Dilute TCA to 20% in DI water
(§4) C. Enzyme reaction • 1. […] Some compounds were tested under high SAM conditions.
(§5) D. Data analysis • 1. IC50 values were determined by fitting the data to a 4-parameter IC50 equation using proprietary curve fitting software. • 2. For compounds tested under high SAM conditions, Ki^app values were obtained by fitting the dose response curve to a model for competitive inhibition using proprietary curve fitting software. Preparation of HeLa Oligonucleosomes: Reagents • Cell Pellet: 15 L HeLa S3 (Accelgen)+6 L HeLa S3 (in house) • Mnase (Worthington Biochemicals) Equipment • SW-28 Rotor • Dounce Homogenizer/B Pestle Buffers • Lysis: 20 mM Hepes pH 7.5, 0.25M Sucrose, 3 mM MgCl2, 0.5% Nonidet P-40, 0.5 mM TCEP, 1 Roche Protease Tablet • B: 20 mM Hepes pH7.5, 3 mM MgCl2, 0.5 mM EDTA, 0.5 mM TCEP, 1 Roche Protease Tablet • MSB: 20 mM Hepes pH7.5, 0.4 M NaCl, 1 mM EDTA, 5% v/v Glycerol, 0.5 mM TCEP, 0.2 mM PMSF • LSB: 20 mM Hepes pH7.5, 0.1M NaCl, 1 mM EDTA, 0.5 mM TCEP, 0.2 mM PMSF • NG: 20 mM Hepes pH7.5, 1 mM EDTA, 0.4 m NaCl, 0.2 mM PMSF, 0.5 mM TCEP • Storage: 20 mM Hepes pH7.5, 1 mM EDTA, 10% Glycerol, 0.2 mM PMSF, 0.5 mM TCEP Protocol

EZH2 Mutant Y641N = EZH2 Mutant Y641N (Homo sapiens (Human), UniProt Q15910, Y641N); assay: EZH2 Mutant Y641N nucleosome assay; type: biochemical; conditions: PRC2 4-protein complex 6 nM, 1.5 μM SAM, HeLa oligonucleosomes
Chain of EZH2 Mutant Y641N (Q15910 whole entry Y641N, looked up): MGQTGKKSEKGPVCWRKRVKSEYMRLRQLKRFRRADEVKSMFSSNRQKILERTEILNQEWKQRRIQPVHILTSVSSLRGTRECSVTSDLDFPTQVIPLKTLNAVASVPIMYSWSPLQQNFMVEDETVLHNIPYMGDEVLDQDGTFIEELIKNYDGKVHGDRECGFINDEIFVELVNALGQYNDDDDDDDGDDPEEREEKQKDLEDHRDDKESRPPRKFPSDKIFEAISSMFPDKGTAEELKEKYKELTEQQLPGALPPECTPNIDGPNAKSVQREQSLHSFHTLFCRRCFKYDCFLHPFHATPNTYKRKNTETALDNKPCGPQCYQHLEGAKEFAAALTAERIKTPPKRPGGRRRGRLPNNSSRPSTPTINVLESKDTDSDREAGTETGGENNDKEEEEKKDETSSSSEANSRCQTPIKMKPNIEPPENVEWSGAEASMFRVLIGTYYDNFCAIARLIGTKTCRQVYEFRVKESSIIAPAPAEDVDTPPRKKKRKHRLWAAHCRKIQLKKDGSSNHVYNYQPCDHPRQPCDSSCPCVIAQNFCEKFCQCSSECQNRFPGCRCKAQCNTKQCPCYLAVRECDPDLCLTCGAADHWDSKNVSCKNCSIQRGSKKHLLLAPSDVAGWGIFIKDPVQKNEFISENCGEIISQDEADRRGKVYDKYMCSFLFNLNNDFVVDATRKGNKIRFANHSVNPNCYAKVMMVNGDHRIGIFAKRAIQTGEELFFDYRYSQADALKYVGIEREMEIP
Chain of EZH2 Mutant Y641N (O75530 whole entry partner, looked up): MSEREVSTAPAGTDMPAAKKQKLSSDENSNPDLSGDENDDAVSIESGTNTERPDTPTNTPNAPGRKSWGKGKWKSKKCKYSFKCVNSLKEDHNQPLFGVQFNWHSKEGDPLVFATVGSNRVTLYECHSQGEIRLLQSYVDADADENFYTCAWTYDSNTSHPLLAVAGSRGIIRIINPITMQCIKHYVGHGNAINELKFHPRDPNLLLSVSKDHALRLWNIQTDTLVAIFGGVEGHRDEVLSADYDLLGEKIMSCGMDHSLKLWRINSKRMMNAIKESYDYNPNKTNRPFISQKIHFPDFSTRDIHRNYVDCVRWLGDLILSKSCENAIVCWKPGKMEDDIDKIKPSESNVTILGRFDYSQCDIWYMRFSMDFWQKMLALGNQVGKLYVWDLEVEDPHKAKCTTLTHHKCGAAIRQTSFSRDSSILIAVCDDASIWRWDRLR
Chain of EZH2 Mutant Y641N (Q15022 whole entry partner, looked up): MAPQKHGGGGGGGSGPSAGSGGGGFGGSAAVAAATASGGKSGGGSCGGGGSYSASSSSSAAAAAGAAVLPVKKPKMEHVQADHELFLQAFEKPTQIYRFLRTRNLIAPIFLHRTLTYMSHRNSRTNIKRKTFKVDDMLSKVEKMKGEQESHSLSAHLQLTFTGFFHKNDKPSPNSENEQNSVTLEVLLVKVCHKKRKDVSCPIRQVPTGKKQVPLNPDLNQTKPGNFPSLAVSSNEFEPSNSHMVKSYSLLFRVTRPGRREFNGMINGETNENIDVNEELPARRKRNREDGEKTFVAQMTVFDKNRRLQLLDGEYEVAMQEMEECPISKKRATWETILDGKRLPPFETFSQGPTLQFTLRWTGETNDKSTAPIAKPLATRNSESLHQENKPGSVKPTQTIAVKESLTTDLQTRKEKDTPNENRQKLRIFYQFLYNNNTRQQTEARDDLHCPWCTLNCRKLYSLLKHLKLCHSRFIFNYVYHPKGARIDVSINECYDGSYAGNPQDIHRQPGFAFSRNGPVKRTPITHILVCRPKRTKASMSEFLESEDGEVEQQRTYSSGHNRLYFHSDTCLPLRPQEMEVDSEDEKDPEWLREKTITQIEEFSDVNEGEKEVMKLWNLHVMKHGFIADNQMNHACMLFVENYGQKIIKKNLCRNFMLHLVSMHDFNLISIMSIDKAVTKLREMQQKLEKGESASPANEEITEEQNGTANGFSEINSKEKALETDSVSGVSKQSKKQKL
Chain of EZH2 Mutant Y641N (Q09028 whole entry partner, looked up): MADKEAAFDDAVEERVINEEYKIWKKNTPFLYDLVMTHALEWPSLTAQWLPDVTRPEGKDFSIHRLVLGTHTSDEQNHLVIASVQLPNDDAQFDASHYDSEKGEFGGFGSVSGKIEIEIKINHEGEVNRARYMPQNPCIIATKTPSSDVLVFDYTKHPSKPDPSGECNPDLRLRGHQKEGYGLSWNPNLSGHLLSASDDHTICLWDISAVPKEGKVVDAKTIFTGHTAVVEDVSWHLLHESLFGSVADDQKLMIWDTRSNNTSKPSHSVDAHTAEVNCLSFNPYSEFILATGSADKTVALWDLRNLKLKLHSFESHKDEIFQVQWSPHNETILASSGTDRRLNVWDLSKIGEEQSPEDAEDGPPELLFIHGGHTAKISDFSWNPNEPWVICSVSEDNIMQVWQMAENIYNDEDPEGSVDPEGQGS
Protocol: as §1, §2, §3, §4, §5

[1] = read-out: WT EZH2 Nucleosome assay (10X SAM) Ki
[2] = read-out: EZH2 Mutant Y641N Nucleosome assay IC50
[3] = WT EZH2 Nucleosome assay (10X SAM) Ki (μM)
[4] = EZH2 Mutant Y641N Nucleosome assay IC50 (μM)

Chain of WT EZH2 (Q15910 whole entry, looked up): as the sequence (Q15910 whole entry Y641N, looked up) above, with N641Y counted along it
Chain of WT EZH2 (O75530 whole entry partner, looked up): as the sequence (O75530 whole entry partner, looked up) above
Chain of WT EZH2 (Q15022 whole entry partner, looked up): as the sequence (Q15022 whole entry partner, looked up) above
Chain of WT EZH2 (Q09028 whole entry partner, looked up): as the sequence (Q09028 whole entry partner, looked up) above

Compound	Ki (WT EZH2; [1])	IC50 (EZH2 Mutant Y641N; [2])	Ki (WT EZH2; [3])	IC50 (EZH2 Mutant Y641N; [4])
COC(c1cc(Cl)c2c(c1Cl)C(=O)N(Cc1c(C)cc(C)[nH]c1=O)CC2)C1CN(C(=O)CO)C1 (single isomer, unassigned) [Example 128]	0.184 µM	1.17 µM	–	–
COC(c1cc(Cl)c2c(c1Cl)C(=O)N(Cc1c(C)cc(C)[nH]c1=O)CC2)C1CN(C(=O)CO)C1 (single isomer, unassigned) [Example 129]	0.0008 µM	0.008 µM	–	–
COc1cc(C)[nH]c(=O)c1CN1CCc2c(C)cc(C(OC)C3CCS(=O)(=O)CC3)c(Cl)c2C1=O (single isomer, unassigned) [Example 130]	0.22 µM	1.99 µM	–	–
COC(c1cc(C)c2c(c1Cl)C(=O)N(Cc1c(C)cc(C)[nH]c1=O)CC2)C1CCS(=O)(=O)CC1 (single isomer, unassigned) [Example 131]	0.0007 µM	0.005 µM	–	–
COC(c1ccc2c(c1Cl)C(=O)N(Cc1c(C)cc(C)[nH]c1=O)CC2)C1CCOC1 (single isomer, unassigned) [Example 132]	0.001 µM	0.013 µM	–	–
COC(c1ccc2c(c1Cl)C(=O)N(Cc1c(C)cc(C)[nH]c1=O)CC2)C1CCOC1 (single isomer, unassigned) [Example 133]	0.837 µM	8.64 µM	–	–
COC(c1ccc2c(c1Cl)C(=O)N(Cc1c(C)cc(C)[nH]c1=O)CC2)C1CCOC1 (single isomer, unassigned) [Example 134]	0.131 µM	1.93 µM	–	–
COC(c1ccc2c(c1Cl)C(=O)N(Cc1c(C)cc(C)[nH]c1=O)CC2)C1CCOC1 (single isomer, unassigned) [Example 135]	0.002 µM	0.014 µM	–	–
COC(c1cc(Cl)c2c(c1Cl)C(=O)N(Cc1c(C)cc(C)[nH]c1=O)CC2)C1CCN(C)CC1 (single isomer, unassigned) [Example 136]	–	–	0.0001 µM	0.003 µM
COC(c1cc(Cl)c2c(c1Cl)C(=O)N(Cc1c(C)cc(C)[nH]c1=O)CC2)C1CCN(C)CC1 (single isomer, unassigned) [Example 137]	–	–	0.133 µM	1.17 µM
COC(c1cc(Br)c2c(c1Cl)C(=O)N(Cc1c(C)cc(C)[nH]c1=O)CC2)C1CN(C(=O)CO)C1 (single isomer, unassigned) [Example 138]	0.046 µM	0.249 µM	–	–
COC(c1cc(Br)c2c(c1Cl)C(=O)N(Cc1c(C)cc(C)[nH]c1=O)CC2)C1CN(C(=O)CO)C1 (single isomer, unassigned) [Example 139]	0.0005 µM	0.0085 µM	–	–
COC(c1cc(Cl)c2c(c1Cl)C(=O)N(Cc1c(C)cc(C)[nH]c1=O)CC2)[C@H](C)CO (single isomer, unassigned) [Example 140]	0.103 µM	1.17 µM	–	–
COC(c1cc(Cl)c2c(c1Cl)C(=O)N(Cc1c(C)cc(C)[nH]c1=O)CC2)[C@H](C)CO (single isomer, unassigned) [Example 141]	0.002 µM	0.016 µM	–	–
COC(c1cc(Cl)c2c(c1Cl)C(=O)N(Cc1c(C)cc(C)[nH]c1=O)CC2)[C@@H](C)CO (single isomer, unassigned) [Example 142]	0.008 µM	0.109 µM	–	–
COC(c1cc(Cl)c2c(c1Cl)C(=O)N(Cc1c(C)cc(C)[nH]c1=O)CC2)[C@@H](C)CO (single isomer, unassigned) [Example 143]	0.276 µM	1.77 µM	–	–
COc1cc(C)[nH]c(=O)c1CN1CCc2c(C)cc(C(OC)C3COC3)c(Cl)c2C1=O (single isomer, unassigned) [Example 144]	0.0002 µM	0.005 µM	–	–

Compound	Ki (WT EZH2; [1])	IC50 (EZH2 Mutant Y641N; [2])	Ki (WT EZH2; [3])	IC50 (EZH2 Mutant Y641N; [4])
COc1cc(C)[nH]c(=O)c1CN1CCc2c(C)cc(C(OC)C3COC3)c(Cl)c2C1=O (single isomer, unassigned) [Example 145]	0.07 µM	0.272 µM	–	–
COC(c1cc(Br)c2c(c1Cl)C(=O)N(Cc1c(C)cc(C)[nH]c1=O)CC2)C1CCN(C)CC1 (single isomer, unassigned) [Example 146]	0.0001 µM	0.0035 µM	–	–
COC(c1cc(Br)c2c(c1Cl)C(=O)N(Cc1c(C)cc(C)[nH]c1=O)CC2)C1CCN(C)CC1 (single isomer, unassigned) [Example 147]	0.128 µM	0.543 µM	–	–
COC(c1cc(Cl)c2c(c1Cl)C(=O)N(Cc1c(C)cc(C)[nH]c1=O)CC2)C1CCS(=O)(=O)C1 (single isomer, unassigned) [Example 148]	0.056 µM	0.439 µM	–	–
COC(c1cc(Cl)c2c(c1Cl)C(=O)N(Cc1c(C)cc(C)[nH]c1=O)CC2)C1CCS(=O)(=O)C1 (single isomer, unassigned) [Example 149]	0.539 µM	2.27 µM	–	–
COC(c1cc(Cl)c2c(c1Cl)C(=O)N(Cc1c(C)cc(C)[nH]c1=O)CC2)C1CCS(=O)(=O)C1 (single isomer, unassigned) [Example 150]	0.0001 µM	0.003 µM	–	–
COC(c1cc(Cl)c2c(c1Cl)C(=O)N(Cc1c(C)cc(C)[nH]c1=O)CC2)C1CCS(=O)(=O)C1 (single isomer, unassigned) [Example 151]	0.0008 µM	0.009 µM	–	–
COC(c1cc(C)c2c(c1Cl)C(=O)N(Cc1c(C)cc(C)[nH]c1=O)CC2)C1CCN(C2COC2)CC1 (single isomer, unassigned) [Example 154]	0.0446 µM	0.553 µM	–	–
COC(c1cc(C)c2c(c1Cl)C(=O)N(Cc1c(C)cc(C)[nH]c1=O)CC2)C1CCN(C2COC2)CC1 (single isomer, unassigned) [Example 155]	0.0013 µM	0.027 µM	–	–
COC(c1cc(Cl)c2c(c1Cl)C(=O)N(Cc1c(C)cc(C)[nH]c1=O)CC2)C1CCN(C2COC2)CC1 (single isomer, unassigned) [Example 156]	–	–	0.375 µM	1.71 µM
CCOC(c1cc(Cl)c2c(c1Cl)C(=O)N(Cc1c(C)cc(C)[nH]c1=O)CC2)C1CS(=O)(=O)C1 (single isomer, unassigned) [Example 158]	–	–	0.578 µM	5.13 µM
COC(c1cc(Cl)c2c(c1Cl)C(=O)N(Cc1c(C)cc(C)[nH]c1=O)CC2)C1CCOC1 (single isomer, unassigned) [Example 160]	–	–	0.021 µM	0.086 µM
COC(c1cc(Cl)c2c(c1Cl)C(=O)N(Cc1c(C)cc(C)[nH]c1=O)CC2)C1CCOC1 (single isomer, unassigned) [Example 162]	–	–	0.148 µM	2.97 µM
[2H]C([2H])([2H])OC(c1cc(Cl)c2c(c1Cl)C(=O)N(Cc1c(C)cc(C)[nH]c1=O)CC2)C1CCN(C(=O)CO)CC1 (single isomer, unassigned) [Example 164]	–	–	0.2 µM	1.97 µM
COC(c1cc(Cl)c2c(c1Cl)C(=O)N(Cc1c(C)cc(C)[nH]c1=O)CC2)C1CCNCC1 (single isomer, unassigned) [Example 166]	0.0002 µM	0.002 µM	–	–
COC(c1cc(Cl)c2c(c1Cl)C(=O)N(Cc1c(C)cc(C)[nH]c1=O)CC2)C1CCNCC1 (single isomer, unassigned) [Example 167]	0.062 µM	0.85 µM	–	–
COC(c1cc(C)c2c(c1Cl)C(=O)N(Cc1c(C)cc(C)[nH]c1=O)CC2)C1CCN(C(=O)CO)CC1 (single isomer, unassigned) [Example 168]	0.0007 µM	0.008 µM	–	–
